2 molecules from patent publication EP0933350A1, “Tricyclic retinoids, methods for their production and use” (LIGAND PHARMACEUTICALS INCORPORATED, priority 1994, dated 1996) can be followed below.

One assay relates to TPA induction of ODC. Kind of assay: ornithine decarboxylase (ODC) assay: inhibition of TPA induction of ODC. It is filed as cell-based. The note with it: concentration required to inhibit the TPA induction of ODC by 80 percent.
For assay [1], the system named is ME 180 cell line. Kind of assay: incorporation of 3H-thymidine (antiproliferative). Type of assay: cell-based. The note with it: Homo sapiens, 96 hours, radiolabeled thymidine incorporation, read-out: TdR IC50.
Assay [2] concerns AML-193 cell line. Kind of assay: viability (tetrazolium dye, mitochondrial function). Type of assay: cell-based. The note with it: Homo sapiens, 96 hours, read-out: MTS IC50.
Assay [3] deals with RPMI 8226 cell line. Described as above. As to conditions: Homo sapiens, 96 hours, read-out: MTS IC50. It is filed as cell-based.
In assay [4] the test system is AML-193 cell line. The assay can be described thus: incorporation of 3H-thymidine (antiproliferative). As to conditions: Homo sapiens, 96 h, read-out: TdR IC50 (nM).
Assay [5] concerns RPMI 8226 cell line. The assay can be described thus: incorporation of 3H-thymidine (antiproliferative). Type of assay: cell-based. The note with it: Homo sapiens, 96 hours, radiolabeled thymidine incorporation, read-out: TdR IC50.
The subject of assay [6] is ME 180 cell line. Kind of assay: viability (tetrazolium dye, mitochondrial function). Type of assay: cell-based. As to conditions: Homo sapiens, 96 hours, read-out: MTS IC50.

In turn, `CCOC(=O)/C=C(C)/C=C/C=C1/CCCc2cc3c(cc21)C(C)(C)CCC3(C)C` [Compound 101a, Ethyl (2E,4E)-3-methyl-6-[(Z)-3,4,5,6,7,8-hexahydro-5,5,8,8-tetramethyl-2H-anthracen-1-ylidene]hexa-2,4-dienoate] returned an IC80 in the assay on TPA induction of ODC of 91 nM.

`CC(/C=C/C=C1/CC(C)(C)Oc2cc3c(cc21)C(C)(C)CCC3(C)C)=C\C(=O)O` [Compound 104b, (2E,4E)-3-Methyl-6-(2,3,6,7,8,9-hexahydro-2,2,6,6,9,9-hexamethylbenzo[b]-chromen-4-ylidene)-hexa-2,4-dienoic acid]: the IC50 in the assay with ME 180 cell line [1] was 90 nM; in the assay on AML-193 cell line [2], 1000 nM; with RPMI 8226 cell line [3], 90 nM; in the assay on AML-193 cell line [4], 90 nM; with RPMI 8226 cell line [5] it was 30 nM; in the assay on ME 180 cell line [6] it was 1000 nM.
